Earlier results, collected in US20110092601A1, “LYSINE-SPECIFIC DEMETHYLASE INHIBITORS” (THE JOHNS HOPKINS UNIVERSITY, priority 2007, published 2011).

Tested on: P19 embryonal carcinoma cells
Details: P19 embryonal carcinoma cells treated with tranylcypromine

N[C@@H]1C[C@H]1c1ccccc1 [tranylcypromine, (1R,2S)-2-phenylcyclopropan-1-amine]
Effect on transcription of the Egr1 and Oct4 genes: transcriptional de-repression of the Egr1 and Oct4 genes
